According to patent US20250326732A1 (Pretzel Therapeutics, Inc., priority 2021, published 2025):

biological target: POLRMT (Homo sapiens (Human), UniProt O00411); assay: homogeneous TR-FRET assay of mitochondrial transcription (inhibition of POLRMT); assay type: biochemical; conditions: 7.5 nM POLRMT, 15 nM TFB2M, 30 nM TFAM, 0.5 nM DNA template, 500 μM NTPs, 37° C. for 60 minutes
How it was run: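 POLRMT transcription from linearized pUC-LSP DNA template; RNA product detected by hybridization of ATTO647 acceptor (1 nM) and biotinylated donor (3 nM) probes plus Europium-streptavidin. Reaction stopped with EDTA/700 mM NaCl buffer, pH 7.5.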

Sequence of POLRMT (O00411 42-1230): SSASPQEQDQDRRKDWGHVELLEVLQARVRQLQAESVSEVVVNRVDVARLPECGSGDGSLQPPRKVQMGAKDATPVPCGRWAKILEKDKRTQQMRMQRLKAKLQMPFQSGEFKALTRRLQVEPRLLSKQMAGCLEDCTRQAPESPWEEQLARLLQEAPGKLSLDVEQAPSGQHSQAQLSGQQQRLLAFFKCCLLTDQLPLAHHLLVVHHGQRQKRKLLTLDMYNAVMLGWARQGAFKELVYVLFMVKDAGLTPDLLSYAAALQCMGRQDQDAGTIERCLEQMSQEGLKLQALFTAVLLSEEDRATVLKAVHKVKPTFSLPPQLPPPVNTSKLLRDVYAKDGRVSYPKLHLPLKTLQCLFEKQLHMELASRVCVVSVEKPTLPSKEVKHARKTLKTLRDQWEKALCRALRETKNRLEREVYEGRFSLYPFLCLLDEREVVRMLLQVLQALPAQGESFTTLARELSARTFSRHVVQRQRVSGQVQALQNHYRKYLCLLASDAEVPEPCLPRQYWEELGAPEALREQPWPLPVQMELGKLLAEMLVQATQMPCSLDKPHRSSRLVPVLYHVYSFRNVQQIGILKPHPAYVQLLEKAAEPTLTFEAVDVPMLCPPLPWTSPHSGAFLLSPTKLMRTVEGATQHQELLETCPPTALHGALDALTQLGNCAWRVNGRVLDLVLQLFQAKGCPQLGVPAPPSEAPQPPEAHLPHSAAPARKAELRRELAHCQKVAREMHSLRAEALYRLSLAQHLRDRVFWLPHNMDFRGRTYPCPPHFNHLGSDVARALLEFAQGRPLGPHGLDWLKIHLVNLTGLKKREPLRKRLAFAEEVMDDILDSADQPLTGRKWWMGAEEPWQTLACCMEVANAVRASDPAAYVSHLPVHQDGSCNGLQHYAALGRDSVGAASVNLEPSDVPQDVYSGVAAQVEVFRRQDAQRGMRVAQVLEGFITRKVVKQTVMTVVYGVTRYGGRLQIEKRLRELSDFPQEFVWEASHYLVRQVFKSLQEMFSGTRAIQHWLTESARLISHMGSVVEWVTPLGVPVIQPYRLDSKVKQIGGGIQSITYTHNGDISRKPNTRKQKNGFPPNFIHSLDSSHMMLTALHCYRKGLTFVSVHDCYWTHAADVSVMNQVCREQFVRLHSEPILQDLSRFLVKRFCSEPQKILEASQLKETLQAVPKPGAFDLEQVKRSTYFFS

Structure (SMILES) | IC50 [nM]
CC(=O)N(C)[C@H]1CCCN(C(=O)c2ccc3c(-c4ccccc4C)cc(=O)oc3c2)C1 [Example 173, (S)—N-methyl-N-(1-(2-oxo-4-(o-tolyl)-2H-chromene-7-carbonyl)piperidin-3-yl)acetamide] | 73000
CC(=O)NC[C@H]1CCN(C(=O)c2ccc3c(-c4ccccc4C)cc(=O)oc3c2)C1 [Example 174, (R)—N-((1-(2-oxo-4-(o-tolyl)-2H-chromene-7-carbonyl)pyrrolidin-3-yl)methyl)acetamide] | 47000
CC[C@@H](C(=O)O)N(C)c1ccc2c(-c3ccccc3C)cc(=O)oc2c1 [Example 180, (S)-2-(methyl(2-oxo-4-(o-tolyl)-2H-chromen-7-yl)amino)butanoic acid] | 200
Cc1ccccc1-c1cc(=O)oc2cc(C(=O)N3CCC(CN(C)C)C3)ccc12 (stereo not drawn) [Example 181, 7-(3-((dimethylamino)methyl)pyrrolidine-1-carbonyl)-4-(o-tolyl)-2H-chromen-2-one] | > 100000
Cc1ccccc1-c1cc(=O)oc2cc(C(=O)N3CC(C(N)=O)C3)ccc12 [Example 183, 1-(2-oxo-4-(o-tolyl)-2H-chromene-7-carbonyl) azetidine-3-carboxamide] | 7000
Cc1ccccc1-c1cc(=O)oc2cc(NCc3nnn[nH]3)ccc12 [Example 184, 7-(((1H-tetrazol-5-yl)methyl)amino)-4-(o-tolyl)-2H-chromen-2-one] | 3000
C[C@@H](Cc1ccc2c(-c3ccc(F)cc3Cl)cc(=O)oc2c1)C(=O)N1CCC[C@H](C(=O)O)C1 [Example 186, (S)-1-((S)-3-(4-(2-chloro-4-fluorophenyl)-2-oxo-2H-chromen-7-yl)-2-methylpropanoyl)piperidine-3-carboxylic acid] | 28000
C[C@H](Cc1ccc2c(-c3ccc(F)cc3Cl)cc(=O)oc2c1)C(=O)N1CCC[C@H](C(=O)O)C1 [Example 187, (S)-1-((R)-3-(4-(2-chloro-4-fluorophenyl)-2-oxo-2H-chromen-7-yl)-2-methylpropanoyl)piperidine-3-carboxylic acid] | 100
Cc1ccccc1-c1cc(=O)oc2cc(N(C)CC(=O)NS(C)(=O)=O)ccc12 [Example 191, 2-(methyl(2-oxo-4-(o-tolyl)-2H-chromen-7-yl)amino)-N-(methylsulfonyl)acetamide] | 7000
Cc1ccccc1-c1cc(=O)oc2cc(N(C)Cc3ccnn3C)ccc12 [Example 193, 7-(methyl((1-methyl-1H-pyrazol-5-yl)methyl)amino)-4-(o-tolyl)-2H-chromen-2-one] | 100
CC(C(N)=O)N(C)c1ccc2c(-c3ccccc3)cc(=O)oc2c1 (stereo not drawn) [Example 194, 2-(methyl(2-oxo-4-phenyl-2H-chromen-7-yl)amino)propanamide] | 300
COCC(Nc1ccc2c(-c3ccccc3C)cc(=O)oc2c1)C(N)=O (stereo not drawn) [Example 199, 3-methoxy-2-((2-oxo-4-(o-tolyl)-2H-chromen-7-yl)amino)propanamide] | 800
COCC(C(N)=O)N(C)c1ccc2c(-c3ccccc3C)cc(=O)oc2c1 (stereo not drawn) [Example 202, 3-methoxy-2-(methyl(2-oxo-4-(o-tolyl)-2H-chromen-7-yl)amino)propanamide] | 2000
CC[C@@H](Nc1ccc2c(-c3ccccc3C)cc(=O)oc2c1)C(N)=O [Example 211, (R)-2-((2-oxo-4-(o-tolyl)-2H-chromen-7-yl)amino)butanamide] | 1000
Cc1ccccc1-c1cc(=O)oc2cc(NCC3(C(=O)O)CC3)ccc12 [Example 216, 1-(((2-oxo-4-(o-tolyl)-2H-chromen-7-yl)amino)methyl)cyclopropane-1-carboxylic acid] | 600
Cc1ccccc1-c1cc(=O)oc2cc(N(C)CC3(C(=O)O)CC3)ccc12 [Example 217, 1-((methyl(2-oxo-4-(o-tolyl)-2H-chromen-7-yl)amino)methyl)cyclopropane-1-carboxylic acid] | 90
Cc1ccccc1-c1cc(=O)oc2cc(N(C)CC(=O)NCC(F)(F)F)ccc12 [Example 220, 2-(methyl(2-oxo-4-(o-tolyl)-2H-chromen-7-yl)amino)-N-(2,2,2-trifluoroethyl)acetamide] | 100
Cc1ccccc1-c1cc(=O)oc2cc(CN(C)C(=O)N3CCC[C@@H](C(=O)O)C3)ccc12 [Example 222, (R)-1-(methyl((2-oxo-4-(o-tolyl)-2H-chromen-7-yl)methyl)carbamoyl)piperidine-3-carboxylic acid] | 2000
Cc1ccccc1-c1cc(=O)oc2cc(N(C)CC(=O)NCC(=O)O)ccc12 [Example 223, N-methyl-N-(2-oxo-4-(o-tolyl)-2H-chromen-7-yl)glycylglycine] | 800
CCOC(=O)[C@@H]1C[C@@H]1c1ccc2c(-c3ccccc3C)cc(=O)oc2c1 [Example 224, ethyl (1R,2S)-2-(2-oxo-4-(o-tolyl)-2H-chromen-7-yl)cyclopropane-1-carboxylate] | 300
CCOC(=O)[C@H]1C[C@@H]1c1ccc2c(-c3ccccc3C)cc(=O)oc2c1 [Example 225, ethyl (1S,2S)-2-(2-oxo-4-(o-tolyl)-2H-chromen-7-yl)cyclopropane-1-carboxylate] | 700
Cc1ccccc1-c1cc(=O)oc2cc(N(C)[C@@H](C)CC(=O)O)ccc12 [Example 228, (S)-3-(methyl(2-oxo-4-(o-tolyl)-2H-chromen-7-yl)amino)butanoic acid] | 200

Further lines, results first:

IC50 [nM] | Structure (SMILES)
50 | CNC(=O)CN(C)c1ccc2c(-c3ccccc3C)cc(=O)oc2c1 [Example 177, N-methyl-2-(methyl(2-oxo-4-(o-tolyl)-2H-chromen-7-yl)amino)acetamide]
50 | Cc1ccccc1-c1cc(=O)oc2cc(N(C)Cc3ccn[nH]3)ccc12 [Example 178, 7-(((1H-pyrazol-5-yl)methyl)(methyl)amino)-4-(o-tolyl)-2H-chromen-2-one]
100 | Cc1ccccc1-c1cc(=O)oc2cc(N(C)Cc3nnn[nH]3)ccc12 [Example 179, 7-(((1H-tetrazol-5-yl)methyl)(methyl)amino)-4-(o-tolyl)-2H-chromen-2-one]
12000 | COC(=O)C1CN(C(=O)c2ccc3c(-c4ccccc4C)cc(=O)oc3c2)C1 [Example 182, methyl 1-(2-oxo-4-(o-tolyl)-2H-chromene-7-carbonyl) azetidine-3-carboxylate]
700 | Cc1ccccc1-c1cc(=O)oc2cc(NCc3ccon3)ccc12 [Example 185, 7-((isoxazol-3-ylmethyl)amino)-4-(o-tolyl)-2H-chromen-2-one]
80 | Cc1ccccc1-c1cc(=O)oc2cc(N(C)Cc3ncco3)ccc12 [Example 188, 7-(methyl(oxazol-2-ylmethyl)amino)-4-(o-tolyl)-2H-chromen-2-one]
2000 | Cc1ccccc1-c1cc(=O)oc2cc(NCc3ccnn3C)ccc12 [Example 192, 7-(((1-methyl-1H-pyrazol-5-yl)methyl)amino)-4-(o-tolyl)-2H-chromen-2-one]
50 | Cc1ccccc1-c1cc(=O)oc2cc(N(C)C(C)C(N)=O)ccc12 (stereo not drawn) [Example 195, 2-(methyl(2-oxo-4-(o-tolyl)-2H-chromen-7-yl)amino)propanamide]
42000 | CC(=O)NC[C@@H]1CCN(C(=O)c2ccc3c(-c4ccccc4C)cc(=O)oc3c2)C1 [Example 196, (S)—N-((1-(2-oxo-4-(o-tolyl)-2H-chromene-7-carbonyl)pyrrolidin-3-yl)methyl)acetamide]
3000 | Cc1ccccc1-c1cc(=O)oc2cc(CC(C#N)CO)ccc12 (stereo not drawn) [Example 200, 3-hydroxy-2-((2-oxo-4-(o-tolyl)-2H-chromen-7-yl)methyl)propanenitrile]
2000 | COCC(C#N)Cc1ccc2c(-c3ccccc3C)cc(=O)oc2c1 (stereo not drawn) [Example 201, 3-methoxy-2-((2-oxo-4-(o-tolyl)-2H-chromen-7-yl)methyl)propanenitrile]
30 | Cc1ccccc1-c1cc(=O)oc2cc(N(C)Cc3ccon3)ccc12 [Example 204, 7-((isoxazol-3-ylmethyl)(methyl)amino)-4-(o-tolyl)-2H-chromen-2-one]
> 100000 | CC(=O)N(C)CC1CCN(C(=O)c2ccc3c(-c4ccccc4C)cc(=O)oc3c2)C1 (stereo not drawn) [Example 205, N-methyl-N-((1-(2-oxo-4-(o-tolyl)-2H-chromene-7-carbonyl)pyrrolidin-3-yl)methyl)acetamide]
300 | Cc1ccccc1-c1cc(=O)oc2cc(N(C)Cc3ccc(=O)[nH]c3)ccc12 [Example 209, 5-((methyl(2-oxo-4-(o-tolyl)-2H-chromen-7-yl)amino)methyl)pyridin-2 (1H)-one]
3000 | Cc1ccccc1-c1cc(=O)oc2cc(NC(C)(C)C(N)=O)ccc12 [Example 210, 2-methyl-2-((2-oxo-4-(o-tolyl)-2H-chromen-7-yl)amino)propanamide]
600 | CC[C@H](Nc1ccc2c(-c3ccccc3C)cc(=O)oc2c1)C(N)=O [Example 212, (S)-2-((2-oxo-4-(o-tolyl)-2H-chromen-7-yl)amino)butanamide]
21000 | Cc1ccccc1-c1cc(=O)oc2cc(NC3(C(N)=O)CC3)ccc12 [Example 213, 1-((2-oxo-4-(o-tolyl)-2H-chromen-7-yl)amino)cyclopropane-1-carboxamide]
200 | COCCNC(=O)CN(C)c1ccc2c(-c3ccccc3C)cc(=O)oc2c1 [Example 218, N-(2-methoxyethyl)-2-(methyl(2-oxo-4-(o-tolyl)-2H-chromen-7-yl)amino)acetamide]
200 | Cc1ccccc1-c1cc(=O)oc2cc(N(C)CC(=O)NCCO)ccc12 [Example 219, N-(2-hydroxyethyl)-2-(methyl(2-oxo-4-(o-tolyl)-2H-chromen-7-yl)amino)acetamide]
2000 | Cc1ccccc1-c1cc(=O)oc2cc(N(C)CC(=O)NCCN(C)C)ccc12 [Example 221, N-(2-(dimethylamino)ethyl)-2-(methyl(2-oxo-4-(o-tolyl)-2H-chromen-7-yl)amino)acetamide]
